pIC50: −log10 of the molar value.

Experimental findings from ChEMBL document CHEMBL1137363, “Discovering inhibitors of human sirtuin type 2: novel structural scaffolds” (J Med Chem, 2006) are described below.

In the assay the target is T1, NAD-dependent protein deacetylase sirtuin-2 (Homo sapiens, UniProt Q8IXJ6).
T1 sequence (Q8IXJ6 whole entry): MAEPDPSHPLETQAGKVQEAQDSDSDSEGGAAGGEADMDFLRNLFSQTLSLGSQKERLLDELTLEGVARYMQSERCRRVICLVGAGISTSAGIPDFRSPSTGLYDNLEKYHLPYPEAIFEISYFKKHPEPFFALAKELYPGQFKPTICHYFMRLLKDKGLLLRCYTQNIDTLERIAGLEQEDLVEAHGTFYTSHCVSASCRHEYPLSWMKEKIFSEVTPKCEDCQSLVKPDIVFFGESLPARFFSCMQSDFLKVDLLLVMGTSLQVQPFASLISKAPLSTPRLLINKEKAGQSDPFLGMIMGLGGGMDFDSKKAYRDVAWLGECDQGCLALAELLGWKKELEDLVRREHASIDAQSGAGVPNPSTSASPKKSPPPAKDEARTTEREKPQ
In words: Inhibition of human recombinant SIRT2.
As a reminder, the pIC50 is −log10 of the IC50, conventionally taken in molar units. On to `CCCCC(CC)COCCCNC(=O)CCC(C)(c1ccc(O)cc1)c1ccc(O)cc1` (stereo not drawn), for which the pIC50 was 3.70.
To `CC1(C)CCC(C)(C)c2cc(-c3csc(C4CCN(Cc5ccc(N(CCC#N)CCC#N)cc5)CC4)n3)ccc21` belongs 3.87.
To `OCc1cccc(/C=N/c2cc(/N=C/c3cccc(CO)c3O)cc(C(F)(F)F)c2)c1O` belongs 4.04.
